“And” between values parts separate entries of the source, which are not always exact repeats. Identical values can stand only once.
Experiment: mn = molality of the nth substance listed, in mol/kg
Settings: 101 kPa, Liquid; for speed of sound: Sing-around technique in a fixed-path interferometer; for mass density: Vibrating tube method

N.N.O=C(O)CC(O)(CC(=O)O)C(=O)O [ammonium citrate, dibasic] + O
Settings	mass density	speed of sound
288.15 K, m1 = 0.0059	999.706 kg/m3	1467.4 m/s
288.15 K, m1 = 0.0071	999.822 kg/m3	1467.6 m/s
288.15 K, m1 = 0.0087	999.992 kg/m3	1467.9 m/s
288.15 K, m1 = 0.0129	1000.42 kg/m3	1468.5 m/s
288.15 K, m1 = 0.0177	1000.9 kg/m3	1469.1 m/s
288.15 K, m1 = 0.0222	1001.37 kg/m3	1469.7 m/s
288.15 K, m1 = 0.0266	1001.8 kg/m3	1470.2 m/s
288.15 K, m1 = 0.0311	1002.26 kg/m3	1470.9 m/s
288.15 K, m1 = 0.0354	1002.69 kg/m3	1471.5 m/s
288.15 K, m1 = 0.0423	1003.38 kg/m3	1472.4 m/s
288.15 K, m1 = 0.0446	1003.62 kg/m3	1472.8 m/s
288.15 K, m1 = 0.0468	1003.84 kg/m3	1473.1 m/s
288.15 K, m1 = 0.0492	1004.09 kg/m3	1473.4 m/s
288.15 K, m1 = 0.0562	1004.75 kg/m3	1474.3 m/s
288.15 K, m1 = 0.0645	1005.59 kg/m3	1475.4 m/s
288.15 K, m1 = 0.0748	1006.57 kg/m3	1476.8 m/s
288.15 K, m1 = 0.0797	1007.07 kg/m3	1477.4 m/s
288.15 K, m1 = 0.09	1008.08 kg/m3	1478.8 m/s
288.15 K, m1 = 0.5	1044.77 kg/m3 and 1044.77 kg/m3 and 1044.73 kg/m3	1529.2 m/s and 1529 m/s and 1529 m/s
288.15 K, m1 = 0.988	1082.62 kg/m3	1585.1 m/s
288.15 K, m1 = 0.997	1082.58 kg/m3	1584.9 m/s
288.15 K, m1 = 0.998	1082.63 kg/m3	1585 m/s
293.15 K, m1 = 0.0059	998.799 kg/m3	1483.5 m/s
293.15 K, m1 = 0.0071	998.916 kg/m3	1483.7 m/s
293.15 K, m1 = 0.0087	999.084 kg/m3	1483.9 m/s
293.15 K, m1 = 0.0129	999.5 kg/m3	1484.5 m/s
293.15 K, m1 = 0.0177	999.976 kg/m3	1485.1 m/s
293.15 K, m1 = 0.0222	1000.44 kg/m3	1485.7 m/s
293.15 K, m1 = 0.0266	1000.87 kg/m3	1486.2 m/s
293.15 K, m1 = 0.0311	1001.32 kg/m3	1486.8 m/s
293.15 K, m1 = 0.0354	1001.75 kg/m3	1487.4 m/s
293.15 K, m1 = 0.0423	1002.43 kg/m3	1488.3 m/s
293.15 K, m1 = 0.0446	1002.67 kg/m3	1488.7 m/s
293.15 K, m1 = 0.0468	1002.88 kg/m3	1488.9 m/s
293.15 K, m1 = 0.0492	1003.13 kg/m3	1489.3 m/s
293.15 K, m1 = 0.0562	1003.78 kg/m3	1490.1 m/s
293.15 K, m1 = 0.0645	1004.61 kg/m3	1491.2 m/s
293.15 K, m1 = 0.0748	1005.58 kg/m3	1492.5 m/s
293.15 K, m1 = 0.0797	1006.07 kg/m3	1493.1 m/s
293.15 K, m1 = 0.09	1007.07 kg/m3	1494.4 m/s
293.15 K, m1 = 0.5	1043.38 kg/m3 and 1043.38 kg/m3 and 1043.34 kg/m3	1542.8 m/s and 1542.6 m/s and 1542.7 m/s
293.15 K, m1 = 0.988	1080.92 kg/m3	1596.5 m/s
293.15 K, m1 = 0.997	1080.88 kg/m3	1596.4 m/s
293.15 K, m1 = 0.998	1080.93 kg/m3	1596.5 m/s
298.15 K, m1 = 0.0059	997.633 kg/m3	1497.7 m/s
298.15 K, m1 = 0.0071	997.747 kg/m3	1497.9 m/s
298.15 K, m1 = 0.0087	997.913 kg/m3	1498.1 m/s
298.15 K, m1 = 0.0129	998.325 kg/m3	1498.7 m/s
298.15 K, m1 = 0.0177	998.796 kg/m3	1499.3 m/s
298.15 K, m1 = 0.0222	999.256 kg/m3	1499.9 m/s
298.15 K, m1 = 0.0266	999.681 kg/m3	1500.3 m/s
298.15 K, m1 = 0.0311	1000.12 kg/m3	1501 m/s
298.15 K, m1 = 0.0354	1000.55 kg/m3	1501.5 m/s
298.15 K, m1 = 0.0423	1001.23 kg/m3	1502.4 m/s
298.15 K, m1 = 0.0446	1001.46 kg/m3	1502.7 m/s
298.15 K, m1 = 0.0468	1001.67 kg/m3	1503 m/s
298.15 K, m1 = 0.0492	1001.92 kg/m3	1503.3 m/s
298.15 K, m1 = 0.0562	1002.56 kg/m3	1504.1 m/s
298.15 K, m1 = 0.0645	1003.38 kg/m3	1505.2 m/s
298.15 K, m1 = 0.0748	1004.34 kg/m3	1506.4 m/s
298.15 K, m1 = 0.0797	1004.83 kg/m3	1507 m/s
298.15 K, m1 = 0.09	1005.81 kg/m3	1508.2 m/s
298.15 K, m1 = 0.5	1041.8 kg/m3 and 1041.8 kg/m3 and 1041.76 kg/m3	1554.8 m/s and 1554.6 m/s and 1554.6 m/s
298.15 K, m1 = 0.988	1079.09 kg/m3	1606.5 m/s
298.15 K, m1 = 0.997	1079.04 kg/m3	1606.4 m/s
298.15 K, m1 = 0.998	1079.09 kg/m3	1606.5 m/s
303.15 K, m1 = 0.0059	996.228 kg/m3	1510.1 m/s
303.15 K, m1 = 0.0071	996.341 kg/m3	1510.3 m/s
303.15 K, m1 = 0.0087	996.506 kg/m3	1510.5 m/s
303.15 K, m1 = 0.0129	996.916 kg/m3	1511 m/s
303.15 K, m1 = 0.0177	997.381 kg/m3	1511.6 m/s
303.15 K, m1 = 0.0222	997.837 kg/m3	1512.2 m/s
303.15 K, m1 = 0.0266	998.259 kg/m3	1512.6 m/s
303.15 K, m1 = 0.0311	998.698 kg/m3	1513.2 m/s
303.15 K, m1 = 0.0354	999.119 kg/m3	1513.8 m/s
303.15 K, m1 = 0.0423	999.789 kg/m3	1514.6 m/s
303.15 K, m1 = 0.0446	1000.02 kg/m3	1514.9 m/s
303.15 K, m1 = 0.0468	1000.23 kg/m3	1515.1 m/s
303.15 K, m1 = 0.0492	1000.48 kg/m3	1515.4 m/s
303.15 K, m1 = 0.0562	1001.11 kg/m3	1516.2 m/s
303.15 K, m1 = 0.0645	1001.92 kg/m3	1517.2 m/s
303.15 K, m1 = 0.0748	1002.88 kg/m3	1518.4 m/s
303.15 K, m1 = 0.0797	1003.36 kg/m3	1519 m/s
303.15 K, m1 = 0.09	1004.34 kg/m3	1520.2 m/s
303.15 K, m1 = 0.5	1040.04 kg/m3 and 1040.04 kg/m3 and 1040 kg/m3	1565.1 m/s and 1564.9 m/s and 1564.9 m/s
303.15 K, m1 = 0.988	1077.11 kg/m3	1615 m/s
303.15 K, m1 = 0.997	1077.07 kg/m3	1614.9 m/s
303.15 K, m1 = 0.998	1077.11 kg/m3	1615 m/s
308.15 K, m1 = 0.0059	994.605 kg/m3	1520.8 m/s
308.15 K, m1 = 0.0071	994.721 kg/m3	1520.9 m/s
308.15 K, m1 = 0.0087	994.88 kg/m3	1521.1 m/s
308.15 K, m1 = 0.0129	995.288 kg/m3	1521.6 m/s
308.15 K, m1 = 0.0177	995.753 kg/m3	1522.2 m/s
308.15 K, m1 = 0.0222	996.203 kg/m3	1522.8 m/s
308.15 K, m1 = 0.0266	996.623 kg/m3	1523.2 m/s
308.15 K, m1 = 0.0311	997.058 kg/m3	1523.8 m/s
308.15 K, m1 = 0.0354	997.475 kg/m3	1524.3 m/s
308.15 K, m1 = 0.0423	998.143 kg/m3	1525.1 m/s
308.15 K, m1 = 0.0446	998.37 kg/m3	1525.4 m/s
308.15 K, m1 = 0.0468	998.58 kg/m3	1525.6 m/s
308.15 K, m1 = 0.0492	998.825 kg/m3	1525.9 m/s
308.15 K, m1 = 0.0562	999.453 kg/m3	1526.7 m/s
308.15 K, m1 = 0.0645	1000.26 kg/m3	1527.7 m/s
308.15 K, m1 = 0.0748	1001.21 kg/m3	1528.8 m/s
308.15 K, m1 = 0.0797	1001.68 kg/m3	1529.4 m/s
308.15 K, m1 = 0.09	1002.65 kg/m3	1530.5 m/s
308.15 K, m1 = 0.5	1038.13 kg/m3 and 1038.12 kg/m3 and 1038.08 kg/m3	1573.9 m/s and 1573.7 m/s and 1573.7 m/s
308.15 K, m1 = 0.988	1075.01 kg/m3	1622.1 m/s
308.15 K, m1 = 0.997	1074.96 kg/m3	1622 m/s
308.15 K, m1 = 0.998	1075.01 kg/m3	1622.1 m/s
313.15 K, m1 = 0.0059	992.787 kg/m3	1529.8 m/s
313.15 K, m1 = 0.0071	992.9 kg/m3	1530 m/s
313.15 K, m1 = 0.0087	993.06 kg/m3	1530.2 m/s
313.15 K, m1 = 0.0129	993.463 kg/m3	1530.7 m/s
313.15 K, m1 = 0.0177	993.924 kg/m3	1531.3 m/s
313.15 K, m1 = 0.0222	994.373 kg/m3	1531.8 m/s
313.15 K, m1 = 0.0266	994.79 kg/m3	1532.2 m/s
313.15 K, m1 = 0.0311	995.224 kg/m3	1532.8 m/s
313.15 K, m1 = 0.0354	995.638 kg/m3	1533.3 m/s
313.15 K, m1 = 0.0423	996.299 kg/m3	1534.1 m/s
313.15 K, m1 = 0.0446	996.527 kg/m3	1534.3 m/s
313.15 K, m1 = 0.0468	996.735 kg/m3	1534.6 m/s
313.15 K, m1 = 0.0492	996.978 kg/m3	1534.8 m/s
313.15 K, m1 = 0.0562	997.604 kg/m3	1535.6 m/s
313.15 K, m1 = 0.0645	998.406 kg/m3	1536.6 m/s
313.15 K, m1 = 0.0748	999.345 kg/m3	1537.7 m/s
313.15 K, m1 = 0.0797	999.818 kg/m3	1538.2 m/s
313.15 K, m1 = 0.09	1000.78 kg/m3	1539.3 m/s
313.15 K, m1 = 0.5	1036.06 kg/m3 and 1036.02 kg/m3	1581.2 m/s and 1581 m/s and 1581 m/s
313.15 K, m1 = 0.988	1072.78 kg/m3	1628 m/s
313.15 K, m1 = 0.997	1072.73 kg/m3	1627.9 m/s
313.15 K, m1 = 0.998	1072.78 kg/m3	1628 m/s
